Data from ChEMBL document CHEMBL3885881, “DrugMatrix”.

Species on record: Rattus norvegicus
Assay: DrugMatrix - Regimen: Daily Repeat
Assay type: toxicity, organism-based, Sprague-Dawley
Parameters: regimen Daily Repeat, gender Male, age 6-8 weeks
Conditions: in vivo, po, route oral GAVAGE, […]; for ABSOLUTE BASOPHIL / ABSOLUTE EOSINOPHIL / ABSOLUTE LYMPHOCYTE / ABSOLUTE MONOCYTE / ABSOLUTE SEGMENTED NEUTROPHIL / BASOPHIL / EOSINOPHIL / ERYTHROCYTE COUNT / HEMATOCRIT / HEMOGLOBIN / LEUKOCYTE COUNT / LYMPHOCYTE / MEAN CORPUSCULAR HEMOGLOBIN / MEAN CORPUSCULAR VOLUME / MONOCYTE / NEUTROPHIL / NUCLEATED RED BLOOD CELLS / PLATELET COUNT: tissue Blood; for ALANINE AMINOTRANSFERASE / ALBUMIN / ALKALINE PHOSPHATASE / ASPARTATE AMINOTRANSFERASE / BLOOD UREA NITROGEN / CARBON DIOXIDE / CHLORIDE / CHOLESTEROL / CREATINE PHOSPHOKINASE / CREATININE / GLUCOSE / LACTATE DEHYDROGENASE / LIPASE / PHOSPHORUS / POTASSIUM / SODIUM / TOTAL BILIRUBIN / TOTAL PROTEIN / URIC ACID: tissue Plasma
[1] = 70 mg/kg, 120 h, dose level M1, time 5 day
[2] = 700 mg/kg, 72 h, dose level High, time 3 day
[3] = 700 mg/kg, 120 h, dose level High, time 5 day

CCCCCCCCc1ccc(O)cc1 [4-OCTYLPHENOL]
ABSOLUTE BASOPHIL [1]: 0 CELLS/uL | ABSOLUTE EOSINOPHIL [1]: 194 CELLS/uL | ABSOLUTE LYMPHOCYTE [1]: 9540.33 CELLS/uL | ABSOLUTE MONOCYTE [1]: 80.33 CELLS/uL | ABSOLUTE SEGMENTED NEUTROPHIL [1]: 918.67 CELLS/uL | BASOPHIL [1]: 0% | EOSINOPHIL [1]: 1.67% | ERYTHROCYTE COUNT [1]: 5.98 x10E6/uL | HEMATOCRIT [1]: 36.37% | HEMOGLOBIN [1]: 13.77 G/DL | LEUKOCYTE COUNT [1]: 10.73 x10E3/uL | LYMPHOCYTE [1]: 88.67% | MEAN CORPUSCULAR HEMOGLOBIN [1]: 23.03 pg | MEAN CORPUSCULAR VOLUME [1]: 60.9 fL | MONOCYTE [1]: 0.67% | NEUTROPHIL [1]: 9% | NUCLEATED RED BLOOD CELLS [1]: 0.33 /100WBC | PLATELET COUNT [1]: 1062 x10E3/uL | ALANINE AMINOTRANSFERASE [1]: 72 u/L | ALBUMIN [1]: 4.1 G/DL | ALKALINE PHOSPHATASE [1]: 380.67 u/L | ASPARTATE AMINOTRANSFERASE [1]: 88.67 u/L | BLOOD UREA NITROGEN [1]: 16.67 mg/dL | CARBON DIOXIDE [1]: 27 mmol/L | CHLORIDE [1]: 102.33 MEQ/L | CHOLESTEROL [1]: 57.67 mg/dL | CREATINE PHOSPHOKINASE [1]: 355.33 u/L | CREATININE [1]: 0.18 mg/dL | GLUCOSE [1]: 157.33 mg/dL | LACTATE DEHYDROGENASE [1]: 260.67 u/L | LIPASE [1]: 11.67 u/L | PHOSPHORUS [1]: 11.13 mg/dL | POTASSIUM [1]: 5.91 MEQ/L | SODIUM [1]: 142.87 MEQ/L | TOTAL BILIRUBIN [1]: 0.17 mg/dL | TOTAL PROTEIN [1]: 5.87 G/DL | URIC ACID [1]: 1.6 mg/dL | ABSOLUTE BASOPHIL [2]: 0 CELLS/uL | ABSOLUTE EOSINOPHIL [2]: 0 CELLS/uL | ABSOLUTE LYMPHOCYTE [2]: 8011 CELLS/uL | ABSOLUTE MONOCYTE [2]: 200 CELLS/uL | ABSOLUTE SEGMENTED NEUTROPHIL [2]: 2522.33 CELLS/uL | BASOPHIL [2]: 0% | EOSINOPHIL [2]: 0% | ERYTHROCYTE COUNT [2]: 6.31 x10E6/uL | HEMATOCRIT [2]: 38.63% | HEMOGLOBIN [2]: 14.83 G/DL | LEUKOCYTE COUNT [2]: 10.73 x10E3/uL | LYMPHOCYTE [2]: 73.33% | MEAN CORPUSCULAR HEMOGLOBIN [2]: 23.5 pg | MEAN CORPUSCULAR VOLUME [2]: 61.27 fL | MONOCYTE [2]: 2% | NEUTROPHIL [2]: 24.67% | NUCLEATED RED BLOOD CELLS [2]: 0.67 /100WBC | PLATELET COUNT [2]: 1294.33 x10E3/uL | ALANINE AMINOTRANSFERASE [2]: 165.67 u/L | ALBUMIN [2]: 3.93 G/DL | ALKALINE PHOSPHATASE [2]: 493 u/L | ASPARTATE AMINOTRANSFERASE [2]: 140.33 u/L | BLOOD UREA NITROGEN [2]: 33.33 mg/dL | CARBON DIOXIDE [2]: 26.67 mmol/L | CHLORIDE [2]: 97.67 MEQ/L | CHOLESTEROL [2]: 169.67 mg/dL | CREATINE PHOSPHOKINASE [2]: 748 u/L | CREATININE [2]: 0.58 mg/dL | GLUCOSE [2]: 147.33 mg/dL | LACTATE DEHYDROGENASE [2]: 302.33 u/L | LIPASE [2]: 10.33 u/L | PHOSPHORUS [2]: 12.5 mg/dL | POTASSIUM [2]: 5.29 MEQ/L | SODIUM [2]: 140.03 MEQ/L | TOTAL BILIRUBIN [2]: 0.9 mg/dL | TOTAL PROTEIN [2]: 6.17 G/DL | URIC ACID [2]: 1.03 mg/dL | ABSOLUTE BASOPHIL [3]: 0 CELLS/uL | ABSOLUTE EOSINOPHIL [3]: 0 CELLS/uL | ABSOLUTE LYMPHOCYTE [3]: 7185 CELLS/uL | ABSOLUTE MONOCYTE [3]: 222.33 CELLS/uL | ABSOLUTE SEGMENTED NEUTROPHIL [3]: 759.33 CELLS/uL | BASOPHIL [3]: 0% | EOSINOPHIL [3]: 0% | ERYTHROCYTE COUNT [3]: 7.06 x10E6/uL | HEMATOCRIT [3]: 42.33% | HEMOGLOBIN [3]: 15.83 G/DL | LEUKOCYTE COUNT [3]: 8.17 x10E3/uL | LYMPHOCYTE [3]: 85% | MEAN CORPUSCULAR HEMOGLOBIN [3]: 22.53 pg | MEAN CORPUSCULAR VOLUME [3]: 60.13 fL | MONOCYTE [3]: 3.33% | NEUTROPHIL [3]: 11.67% | NUCLEATED RED BLOOD CELLS [3]: 0 /100WBC | PLATELET COUNT [3]: 1069.33 x10E3/uL | ALANINE AMINOTRANSFERASE [3]: 175.67 u/L | ALBUMIN [3]: 4.03 G/DL | ALKALINE PHOSPHATASE [3]: 554.67 u/L | ASPARTATE AMINOTRANSFERASE [3]: 104 u/L | BLOOD UREA NITROGEN [3]: 17 mg/dL | CARBON DIOXIDE [3]: 27.67 mmol/L | CHLORIDE [3]: 100 MEQ/L | CHOLESTEROL [3]: 150.33 mg/dL | CREATINE PHOSPHOKINASE [3]: 369 u/L | CREATININE [3]: 0.37 mg/dL | GLUCOSE [3]: 133 mg/dL | LACTATE DEHYDROGENASE [3]: 179.33 u/L | LIPASE [3]: 10.67 u/L | PHOSPHORUS [3]: 11.13 mg/dL | POTASSIUM [3]: 6.27 MEQ/L | SODIUM [3]: 143.2 MEQ/L | TOTAL BILIRUBIN [3]: 0.3 mg/dL | TOTAL PROTEIN [3]: 6.37 G/DL | URIC ACID [3]: 1.23 mg/dL
